From patent US10954214B2 (Janssen Pharmaceutica NV, priority 2016, dated 2021)

What was measured:
[1] = biological target: full-length MALT1 protein (Strep-MALT1(1-824)-His) (Homo sapiens (Human), UniProt Q9UDY8); test: MALT1 Biochemical Protease Assay (Ac-LRSR-AMC substrate); details: 10 nM FL MALT1, 200 μM Ac-LRSR-AMC, 4 h at RT; read-out: MALT1_Biochemical activity (Ac-LRSR-amc) IC50
Outline: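 Fluorescence from AMC release off the quenched LRSR substrate was read after a 4 h reaction at RT. Values were normalised to no-enzyme and uninhibited controls and fitted for IC50 and Hill coefficient.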

[2] = tested on: IL6 secretion by OCI-LY3 ABC-DLBCL cells; test: Human IL6 Mesoscale assay (OCI-LY3); assay type: cell-based; details: Homo sapiens, 24 h
Experimental: (§1) NFKB signaling regulates the secretion of multiple cytokines, including IL6 and IL10. Secretion of the cytokines IL6 and IL10 by TMD8 or OCI-LY3 ABC-DLBCL cells was measured using a mesoscale assay. Inhibition of NFKB signaling by MALT1 or BTK inhibitors results in a decrease of IL6/10 secretion.
(§2) TMD8 or OCI-LY3 cells were propagated in RPMI-1640 (Sigma Aldrich) supplemented with 10% fetal bovine serum (HyClone), 1 mM sodium pyruvate (Invitrogen), 2 mM L-glutamine (Sigma Aldrich) and 1% PenStrep (Sigma Aldrich). Cell passage number should not exceed 30. Cells should be kept between 0.5-2.5 million cells per mL during culturing and cells should be supplemented every 2-3 days with fresh 50 μM beta-mercaptoenthanol. No beta-mercaptoethanol was used during the mesoscale assay.
(§3) For the Mesoscale assay, 100,000 TMD8 or OCI-LY3 cells were seeded per well into black-colored 96-well plates with clear bottom (Corning #3904) and test compounds were added in 9 dilution steps (1:2) ranging from 15 μM to 58.6 nM (final DMSO concentration 0.3%). DMSO control wells were used to determine the maximum signal (High Control (HC)). Treatment with the BTK inhibitor RN486 in a dose range from 30 nM to 131 pM (9 dilutions of 1:2) served as a positive control for NFKB pathway inhibition and was used to determine the maximum inhibition (Low Control (LC)). Compounds and cells were incubated for 24 h at 37° C. and 5% CO2 (assay volume is 150 μL). After 24 h of incubation 50 μL of the supernatant was transferred to a MSD plate (V-Plex Proinflammation Panel 1 (human) kit, Mesoscale (MSD)) and incubated for 2 h with vigorous shaking (600 rpm) at room temperature. Following incubation, plates were washed 3× with PBS+0.05% Tween-20 and 25 μL detection antibody solution (IL6 & IL10 antibodies in diluent 3 (MSD)) was added per well followed by 2 h of incubation with vigorous shaking (600 rpm) at room temperature. After 3× washes with PBS+0.05% Tween-20, plates were incubated with 150 μL 2× Read Buffer T and read on SECTOR imager.

[3] = tested on: IL10 secretion by OCI-LY3 ABC-DLBCL cells; test: Human IL10 Mesoscale assay (OCI-LY3); assay type: cell-based; details: Homo sapiens, 24 h
Experimental: as §1, §2, §3

Chain of full-length MALT1 protein (Strep-MALT1(1-824)-His) (Q9UDY8 whole entry): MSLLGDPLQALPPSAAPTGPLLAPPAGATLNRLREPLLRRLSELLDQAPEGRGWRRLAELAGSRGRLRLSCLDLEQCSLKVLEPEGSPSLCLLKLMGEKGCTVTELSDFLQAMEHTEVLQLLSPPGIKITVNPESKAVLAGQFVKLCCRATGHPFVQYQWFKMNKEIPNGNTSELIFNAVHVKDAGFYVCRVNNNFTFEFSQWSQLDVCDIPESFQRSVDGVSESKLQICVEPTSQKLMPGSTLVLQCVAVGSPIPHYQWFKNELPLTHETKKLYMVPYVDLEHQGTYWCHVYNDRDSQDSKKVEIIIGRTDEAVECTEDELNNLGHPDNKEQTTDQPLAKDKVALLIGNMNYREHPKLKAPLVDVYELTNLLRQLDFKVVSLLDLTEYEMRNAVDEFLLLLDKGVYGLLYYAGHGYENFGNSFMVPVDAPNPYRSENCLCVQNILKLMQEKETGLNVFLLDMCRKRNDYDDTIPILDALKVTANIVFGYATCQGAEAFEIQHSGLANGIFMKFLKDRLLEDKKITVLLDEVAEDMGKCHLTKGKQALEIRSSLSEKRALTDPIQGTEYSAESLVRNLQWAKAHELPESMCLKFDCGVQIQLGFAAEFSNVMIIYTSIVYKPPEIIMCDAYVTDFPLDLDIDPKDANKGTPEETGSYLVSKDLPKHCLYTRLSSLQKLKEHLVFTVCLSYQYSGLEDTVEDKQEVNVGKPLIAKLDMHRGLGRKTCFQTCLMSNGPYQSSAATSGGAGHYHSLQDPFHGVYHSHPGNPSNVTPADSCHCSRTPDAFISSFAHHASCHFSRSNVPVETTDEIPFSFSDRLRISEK

Row | SMILES | IC50 [1] [µM] | IC50 [2] [µM] | IC50 [3] [µM]
1 | O=C(Nc1cnc(-n2nccn2)c(Cl)c1)c1cnn(-c2cc(C3CCN3)nc3ccccc23)c1C(F)(F)F (stereo not drawn) [Cpd 382, 1-(2-(azetidin-2-yl)quinolin-4-yl)-N-(5-chloro-6-(2H-1,2,3-triazol-2-yl)pyridin-3-yl)-5-(trifluoromethyl)-1H-pyrazole-4-carboxamide] | 0.331 | 0.029 | 0.026
2 | Cc1cc(NC(=O)c2cnn(-c3cccc4c(=O)[nH]ccc34)c2C(F)(F)F)ccn1 [Cpd 347, N-(2-methylpyridin-4-yl)-1-(1-oxo-1,2-dihydroisoquinolin-5-yl)-5-(trifluoromethyl)-1H-pyrazole-4-carboxamide] | 0.933 | 0.043 | 0.031
3 | N#Cc1cc(NC(=O)c2cnn(-c3cccc4cn[nH]c34)c2C(F)(F)F)cnc1-n1nccn1 [Cpd 286, N-(5-cyano-6-(2H-1,2,3-triazol-2-yl)pyridin-3-yl)-1-(1H-indazol-7-yl)-5-(trifluoromethyl)-1H-pyrazole-4-carboxamide] | 0.11 | 0.2 | 0.2
4 | O=C(Nc1ccnc(C(F)(F)F)c1)c1cnn(-c2cccn3nccc23)c1C(F)(F)F [Cpd 319, 1-(pyrazolo[1,5-a]pyridin-4-yl)-5-(trifluoromethyl)-N-(2-(trifluoromethyl)pyridin-4-yl)-1H-pyrazole-4-carboxamide] | 0.107 | 0.02 | 0.018
5 | N#Cc1cc(NC(=O)c2cnn(-c3ccnc4nccn34)c2C(F)(F)F)cnc1-n1nccn1 [Cpd 250, N-(5-cyano-6-(2H-1,2,3-triazol-2-yl)pyridin-3-yl)-1-(imidazo[1,2-a]pyrimidin-5-yl)-5-(trifluoromethyl)-1H-pyrazole-4-carboxamide] | 0.316 | 0.269 | 0.407
6 | O=C(Nc1cnc(-n2nccn2)c(Cl)c1)c1cnn(-c2cccc3nc([C@@H]4CCCO4)ccc23)c1C(F)(F)F (single isomer, unassigned) [Cpd 441, (*S)—N-(5-chloro-6-(2H-1,2,3-triazol-2-yl)pyridin-3-yl)-1-(2-(tetrahydrofuran-2-yl)quinolin-5-yl)-5-(trifluoromethyl)-1H-pyrazole-4-carboxamide] | 0.977 | 1.12 | 0.891
7 | Cc1cc(-n2nccn2)c(C#N)cc1NC(=O)c1cnn(-c2cnc(N)c3ccccc23)c1C(F)(F)F [Cpd 337, 1-(1-aminoisoquinolin-4-yl)-N-(5-cyano-2-methyl-4-(2H-1,2,3-triazol-2-yl)phenyl)-5-(trifluoromethyl)-1H-pyrazole-4-carboxamide] | 0.141 | 0.209 | 0.182
8 | N#Cc1cc(-n2ncc(C(=O)Nc3cnc(-n4nccn4)c(Cl)c3)c2C(F)(F)F)c2ccccc2n1 [Cpd 412, N-(5-chloro-6-(2H-1,2,3-triazol-2-yl)pyridin-3-yl)-1-(2-cyanoquinolin-4-yl)-5-(trifluoromethyl)-1H-pyrazole-4-carboxamide] | 0.022 | 1.78 | 0.912
9 | O=C(Nc1ccnc(C(F)(F)F)c1)c1cnn(-c2cncc3c(F)cccc23)c1C(F)(F)F [Cpd 320, 1-(8-fluoroisoquinolin-4-yl)-5-(trifluoromethyl)-N-(2-(trifluoromethyl)pyridin-4-yl)-1H-pyrazole-4-carboxamide] | 0.069 | 0.182 | 0.093
10 | Cc1ncc(NC(=O)c2cnn(-c3cnc(N)c4ccccc34)c2C(F)(F)F)cc1C(F)(F)F [Cpd 377, 1-(1-aminoisoquinolin-4-yl)-N-(6-methyl-5-(trifluoromethyl)pyridin-3-yl)-5-(trifluoromethyl)-1H-pyrazole-4-carboxamide] | 0.457 | 0.052 | 0.056
11 | CNc1ncc(-n2ncc(C(=O)Nc3cnc(-n4nccn4)c(Cl)c3)c2C(F)(F)F)c2ccccc12 [Cpd 323, N-(5-chloro-6-(2H-1,2,3-triazol-2-yl)pyridin-3-yl)-1-(1-(methylamino)isoquinolin-4-yl)-5-(trifluoromethyl)-1H-pyrazole-4-carboxamide] | 0.174 | 0.195 | 0.141
